According to ChEMBL document CHEMBL4049409, “Structure-based discovery of LpxC inhibitors” (Bioorg Med Chem Lett, 2017):
Converted amounts (≈) assume the structure as drawn.

Legend:
[1] = biological target: T1, UDP-3-O-acyl-N-acetylglucosamine deacetylase (Escherichia coli K-12, UniProt P0A725); test: Inhibition of LpxC in Escherichia coli isolate 35 ATCC 25922; set-up: species or system Escherichia coli ATCC 25922
T1 sequence (P0A725 whole entry): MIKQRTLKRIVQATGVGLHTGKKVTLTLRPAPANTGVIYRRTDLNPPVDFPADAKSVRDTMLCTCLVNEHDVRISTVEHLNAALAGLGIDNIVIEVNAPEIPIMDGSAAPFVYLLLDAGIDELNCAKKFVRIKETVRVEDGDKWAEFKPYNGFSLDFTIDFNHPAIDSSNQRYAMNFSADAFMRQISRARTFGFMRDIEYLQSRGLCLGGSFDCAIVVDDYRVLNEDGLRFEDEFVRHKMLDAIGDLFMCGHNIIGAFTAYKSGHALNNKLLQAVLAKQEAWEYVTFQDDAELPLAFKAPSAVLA

Pseudomonas aeruginosa [2] = test: Antibacterial activity against Pseudomonas aeruginosa isolate 847; assay type: functional
[3] = biological target: T2, UDP-3-O-acyl-N-acetylglucosamine deacetylase (Pseudomonas aeruginosa (strain ATCC 15692 / PAO1 / 1C / PRS 101 / LMG12228), UniProt P47205); test: Inhibition of LpxC in Pseudomonas aeruginosa isolate 44 ATCC 27853
T2 sequence (P47205 whole entry): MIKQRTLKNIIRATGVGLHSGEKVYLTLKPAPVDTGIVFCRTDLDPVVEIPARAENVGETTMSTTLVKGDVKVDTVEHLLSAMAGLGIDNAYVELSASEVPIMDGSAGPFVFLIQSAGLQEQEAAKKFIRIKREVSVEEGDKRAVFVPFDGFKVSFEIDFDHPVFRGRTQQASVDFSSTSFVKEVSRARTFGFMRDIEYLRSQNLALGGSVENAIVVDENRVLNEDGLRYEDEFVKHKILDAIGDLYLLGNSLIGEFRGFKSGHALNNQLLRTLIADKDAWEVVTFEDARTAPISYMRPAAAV

[4] = Inhibition of LpxC in Klebsiella pneumoniae isolate 21 ATCC 4352
Pseudomonas aeruginosa [5] = test: Antibacterial activity against Pseudomonas aeruginosa isolate 44 ATCC 27853; assay type: functional
Pseudomonas aeruginosa [6] = test: Antibacterial activity against Pseudomonas aeruginosa isolate 839 harboring mexAB-oprM deletion mutant; assay type: functional
Escherichia coli = test: Antibacterial activity against Escherichia coli isolate 35 ATCC 25922; assay type: functional

Structure (SMILES)	IC50 [1] [nM]	MIC (Pseudomonas aeruginosa [2]) [µg/mL]	IC50 [3] [nM]	IC50 [4] [nM]	MIC (Pseudomonas aeruginosa [5]) [µg/mL]	MIC (Pseudomonas aeruginosa [6]) [µg/mL]	MIC (Escherichia coli) [µg/mL]
C[C@@H](O)[C@H](N[C@H]1CCc2cc(C#Cc3ccc(Cn4ccnc4CCO)cc3)ccc21)C(=O)NO	5	4 (≈ 8.43 µM)	5	3	4 (≈ 8.43 µM)	0.125 (≈ 0.263 µM)	1 (≈ 2.11 µM)
CC(C)(N)[C@H](NC1COCc2cc(C#Cc3ccc(Cn4ccnc4CO)cc3)ccc21)C(=O)NO (stereo not given in full)	3	16 (≈ 32.7 µM)	5	–	4 (≈ 8.17 µM)	0.5 (≈ 1.02 µM)	4 (≈ 8.17 µM)
C[C@@H](O)[C@H](N[C@H]1CCc2cc(C#Cc3ccc(Cn4ccnc4CO)cc3)ccc21)C(=O)NO	6	4 (≈ 8.69 µM)	–	4	4 (≈ 8.69 µM)	0.5 (≈ 1.09 µM)	1 (≈ 2.17 µM)
CC(C)(O)[C@H](N[C@H]1CCc2cc(C#Cc3ccc(CN4CCN(CCO)CC4)cc3)ccc21)C(=O)NO	41	32 (≈ 63.2 µM)	14	–	4 (≈ 7.9 µM)	0.5 (≈ 0.987 µM)	4 (≈ 7.9 µM)
